According to patent US8772499B2, “TRPV3 modulators” (AbbVie Inc., priority 2011, dated 2014):
Read-outs that look alike come from different tables or passages of the source.

How the values were obtained:
[1] = biological target: T1, human TRPV3 (Homo sapiens, UniProt Q8NET8); assay: In vitro antagonism of recombinant human TRPV3 activation (FLIPR Tetra calcium assay); format: cell-based; conditions: HEK293 cells stably expressing human TRPV3, agonist 2-APB at 80 μM
T1 construct: expressed in transfected cells
T1 sequence (Q8NET8 1-790): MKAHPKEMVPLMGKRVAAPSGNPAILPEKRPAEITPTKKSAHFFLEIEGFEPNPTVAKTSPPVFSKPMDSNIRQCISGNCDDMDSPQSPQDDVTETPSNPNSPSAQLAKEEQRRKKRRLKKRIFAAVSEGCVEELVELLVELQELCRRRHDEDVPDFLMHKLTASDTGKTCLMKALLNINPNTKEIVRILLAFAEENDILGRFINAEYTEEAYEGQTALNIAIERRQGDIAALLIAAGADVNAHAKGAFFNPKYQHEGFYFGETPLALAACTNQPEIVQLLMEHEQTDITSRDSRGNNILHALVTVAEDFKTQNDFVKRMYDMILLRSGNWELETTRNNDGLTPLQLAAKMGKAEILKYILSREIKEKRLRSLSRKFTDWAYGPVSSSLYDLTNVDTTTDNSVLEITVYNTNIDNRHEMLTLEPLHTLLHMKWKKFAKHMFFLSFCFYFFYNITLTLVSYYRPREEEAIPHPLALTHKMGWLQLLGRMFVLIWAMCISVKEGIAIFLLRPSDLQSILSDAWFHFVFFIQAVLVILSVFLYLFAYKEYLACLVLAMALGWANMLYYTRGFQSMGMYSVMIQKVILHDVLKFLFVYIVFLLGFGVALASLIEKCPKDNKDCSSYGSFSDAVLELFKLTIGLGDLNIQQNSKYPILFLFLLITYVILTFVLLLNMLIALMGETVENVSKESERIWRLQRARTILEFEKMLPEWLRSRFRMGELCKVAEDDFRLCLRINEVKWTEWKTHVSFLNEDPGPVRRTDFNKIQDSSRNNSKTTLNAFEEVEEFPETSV
Outline: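 Calcium flux read over a 10 min run: compound added at 10 s to Calcium-4-loaded human TRPV3-HEK293 cells, agonist 2-APB (80 μM, its EC80) after 3 min. IC50 derived from peak-minus-baseline signal as percentage of uninhibited 2-APB response, typically averaged over at least two runs.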

[2] = In vitro human microsomal stability assay; format: in vitro ADME
Outline: (§1)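 Compound incubated at 37 °C with NADPH-supplemented liver microsomes, either human or from Sprague-Dawley rat, to assess metabolic stability.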

[3] = In vitro rat microsomal stability assay; format: in vitro ADME, rat (Sprague-Dawley)
Outline: as §1

[4] = actual measured value shown parenthetically, in most cases average of at least two runs, read-out: IC50
[5] = reported range, read-out: IC50 (range class)
[6] = human, microsomes, 0.5 h, 0.5 μM, pH 7.4
[7] = Sprague-Dawley, rat, microsomes, 0.5 h, 0.5 μM, pH 7.4
[8] = human liver microsomes, 0.5 μM substrate, 0.25 mg/mL microsomal protein, pH 7.4, 37° C., NADPH, 30 minutes
[9] = rat liver microsomes (Sprague-Dawley), 0.5 μM substrate, 0.25 mg/mL microsomal protein, pH 7.4, 37° C., NADPH, 30 minutes

Row | SMILES | IC50 [1, 4] | IC50 [1, 5] | HUMAN MICROSOMAL STABILITY (% REMAINING AFTER 30 MINUTES) [2, 6] | RAT MICROSOMAL STABILITY (% REMAINING AFTER 30 MINUTES) [3, 7] | HUMAN MICROSOMAL STABILITY (% REMAINING AFTER 30 MINUTES) [2, 8] | RAT MICROSOMAL STABILITY (% REMAINING AFTER 30 MINUTES) [3, 9]
1 | OC(c1ccccn1)C1(c2ccccc2OC(F)(F)F)CCNCC1 (stereo not drawn) [Example 142, pyridin-2-yl{4-[2-(trifluoromethoxy)phenyl]piperidin-4-yl}methanol] | > 20 µM | > 20 µM | >85% | 37% | – | –
2 | CN1CCC(c2ccc(C(F)(F)F)cc2)(C(O)c2ccccn2)CC1 (stereo not drawn) [Example 143, {1-methyl-4-[4-(trifluoromethyl)phenyl]piperidin-4-yl}(pyridin-2-yl)-methanol] | > 20 µM | > 20 µM | – | – | >85% | 80%
3 | OC(c1ccccn1)C1(c2ccc(OC(F)(F)F)cc2)CCNCC1 (stereo not drawn) [Example 144, pyridin-2-yl{4-[4-(trifluoromethoxy)phenyl]piperidin-4-yl}methanol] | > 20 µM | > 20 µM | >85% | 51% | – | –
4 | CN1CCC(c2ccc(OC(F)(F)F)cc2)(C(O)c2ccccn2)CC1 (stereo not drawn) [Example 145, {1-methyl-4-[4-(trifluoromethoxy)phenyl]piperidin-4-yl}(pyridin-2-yl)-methanol] | 1.77 µM | – | – | – | 68% | 42%
5 | CN1CCC(c2cccc(OC(F)(F)F)c2)(C(O)c2ccccn2)CC1 (stereo not drawn) [Example 146, {1-methyl-4-[3-(trifluoromethoxy)phenyl]piperidin-4-yl}(pyridin-2-yl)-methanol] | 12.8 µM | – | – | – | 84% | 8.9%
6 | OC(c1ccccn1)C1(c2ccc(C(F)(F)F)cc2)CCNCC1 (stereo not drawn) [Example 147, pyridin-2-yl{4-[4-(trifluoromethyl)phenyl]piperidin-4-yl}methanol] | > 20 µM | > 20 µM | >85% | 79% | – | –
7 | OC(c1ccccn1)C1(c2cccc(OC(F)(F)F)c2)CCNCC1 (stereo not drawn) [Example 148, pyridin-2-yl{4-[3-(trifluoromethoxy)phenyl]piperidin-4-yl}methanol] | 3.1 µM | – | – | – | >85% | 53%
8 | CN1CCC(c2ccccc2OC(F)(F)F)(C(O)c2ccccn2)CC1 (stereo not drawn) [Example 149, {1-methyl-4-[2-(trifluoromethoxy)phenyl]piperidin-4-yl}(pyridin-2-yl)-methanol] | 6.2 µM | – | – | – | >85% | 62%
9 | COC1CC(c2ccc(Cl)c(Cl)c2)(C(O)c2ccccn2)C1 [Example 150, (S)-[cis-1-(3,4-dichlorophenyl)-3-methoxycyclobutyl](pyridin-2-yl)-methanol] | 1.69 µM | – | 42% | <0.01% | – | –
10 | OC(c1ccccn1)C1(c2ccc(C(F)(F)F)cc2)CNC1 (stereo not drawn) [Example 152, pyridin-2-yl{3-[4-(trifluoromethyl)phenyl]azetidin-3-yl}methanol] | 19.7 µM | – | >85% | >85% | – | –
11 | CC(C)(C)OC(=O)N1CC(c2ccc(C(F)(F)F)cc2)(C(O)c2ccccn2)C1 (stereo not drawn) [Example 153, tert-butyl 3-[hydroxy(pyridin-2-yl)methyl]-3-[4-(trifluoromethyl)phenyl]-azetidine-1-carboxylate] | 8.01 µM | – | 49% | 21% | – | –
12 | O[C@H](c1ccccn1)C1(c2ccc(C(F)(F)F)cc2)CC(F)(F)C1 [Example 154, (S)-{3,3-difluoro-1-[4-(trifluoromethyl)phenyl]cyclobutyl}(pyridin-2-yl)-methanol] | 0.23 µM | – | 56% | 78% | – | –
13 | CN1CC(c2ccc(C(F)(F)F)cc2)(C(O)c2ccccn2)C1 (stereo not drawn) [Example 155, {1-methyl-3-[4-(trifluoromethyl)phenyl]azetidin-3-yl}(pyridin-2-yl)-methanol] | 17 µM | – | >85% | 76% | – | –
14 | CC(C)(C)OC(=O)N1CCC(c2ccc(C(F)(F)F)cc2)(C(O)c2ccccn2)CC1 (stereo not drawn) [Example 156, tert-butyl 4-[hydroxy(pyridin-2-yl)methyl]-4-[4-(trifluoromethyl)phenyl]-piperidine-1-carboxylate] | > 20 µM | > 20 µM | 26% | 0.08% | – | –
15 | CC(C)(C)OC(=O)N1CCC(c2ccc(OC(F)(F)F)cc2)(C(O)c2ccccn2)CC1 (stereo not drawn) [Example 157, tert-butyl 4-[hydroxy(pyridin-2-yl)methyl]-4-[4-(trifluoromethoxy)phenyl]-piperidine-1-carboxylate] | > 20 µM | > 20 µM | 28% | 0.93% | – | –
16 | CC(C)(C)OC(=O)N1CCC(c2cccc(OC(F)(F)F)c2)(C(O)c2ccccn2)CC1 (stereo not drawn) [Example 158, tert-butyl 4-[hydroxy(pyridin-2-yl)methyl]-4-[3-(trifluoromethoxy)phenyl]-piperidine-1-carboxylate] | > 20 µM | > 20 µM | – | – | 3.7% | 0.04%
17 | O[C@@H](c1ccccn1)C1(c2ccc(OC(F)(F)F)cc2)CC(F)(F)C1 [Example 159, (R)-{3,3-difluoro-1-[4-(trifluoromethoxy)phenyl]cyclobutyl}(pyridin-2-yl)-methanol] | 1.98 µM | – | 45% | 65% | – | –
18 | O=C1CC(c2ccc(C(F)(F)F)cc2)(C(O)c2ccccn2)C1 (stereo not drawn) [Example 160, 3-[hydroxy(pyridin-2-yl)methyl]-3-[4-(trifluoromethyl)phenyl]-cyclobutanone] | 6.11 µM | – | >85% | 60% | – | –
19 | OC(c1ccccn1)C1(c2ccc(C(F)(F)F)cc2)CC2(C1)OCCO2 (stereo not drawn) [Example 161, pyridin-2-yl{2-[4-(trifluoromethyl)phenyl]-5,8-dioxaspiro[3.4]oct-2-yl}-methanol] | 3.27 µM | – | 61% | <0.01% | – | –
20 | OC(c1ccccn1)C1(C2CCCCC2)CCC1 (stereo not drawn) [Example 162, (1-cyclohexylcyclobutyl)(pyridin-2-yl)methanol] | 3.88 µM | – | 0.02% | <0.01% | – | –
21 | OC(c1ccccn1)C1(C2CCCC2)CCC1 (stereo not drawn) [Example 163, (1-cyclopentylcyclobutyl)(pyridin-2-yl)methanol] | 4.9 µM | – | 0.11% | <0.01% | – | –
22 | OC(C1CCc2cccnc21)C1(c2ccc(Cl)c(Cl)c2)CCC1 (stereo not drawn) [Example 167, (anti)-[1-(3,4-dichlorophenyl)cyclobutyl][6,7-dihydro-5H-cyclopenta[b]-pyridin-7-yl]methanol] | > 20 µM | > 20 µM | 9.5% | <0.01% | – | –
23 | OC(C1CCc2cccnc21)C1(c2ccc(Cl)c(Cl)c2)CCC1 (stereo not drawn) [Example 168, (syn)-[1-(3,4-dichlorophenyl)cyclobutyl][6,7-dihydro-5H-cyclopenta[b]-pyridin-7-yl]methanol] | 9.14 µM | – | 5.6% | <0.01% | – | –
24 | OC(C1CCc2cccnc21)C1(c2ccc(F)c(F)c2)CCC1 (stereo not drawn) [Example 171, (anti)-[1-(3,4-difluorophenyl)cyclobutyl][6,7-dihydro-5H-cyclopenta[b]-pyridin-7-yl]methanol] | > 20 µM | > 20 µM | 2.7% | <0.01% | – | –
